According to US9932311B2, “Antidiabetic tricyclic compounds” (Merck Sharp & Dohme Corp., priority 2013, dated 2018):

Tests used:
Human GPR40 [1] = target: T1, Human GPR40 (Homo sapiens, UniProt O14842); assay: Inositol Phosphate Turnover (IP1) Assay 1; type: cell-based; design: expressed in transfected cells; host or cells: HEK cells stably expressing the aequorin reporter; details: HEK cells stably expressing human GPR40, 96-well, 3H-inositol labeling, SPA beads
Description: (§1) Human and mouse GPR40 stable cell-lines were generated in CHO cells stably expressing NFAT BLA (Beta-lactamase). A human GPR40 stable cell-line was generated in HEK cells stably expressing the aequorin expressing reporter. The expression plasmids were transfected using lipofectamine (Life Technologies) following manufacturer's instructions. Stable cell-lines were generated following drug selection.
The assay was performed in 96-well format. HEK cells stably expressing human GPR40 were plated to be 60-80% confluent within 72 h. After 72 h, the plates were aspirated and the cells washed with inositol-free DMEM (ICN). The wash media was replaced with 150 μL of 3H-inositol labeling media (inositol-free media containing 0.4% human albumin or 0.4% mouse albumin, 1× pen/strep antibiotics, glutamine, 25 mM HEPES to which was added 3H-myo-inositol NEN #NET114A 1 mCi/mL, 25 Ci/mmol diluted 1:150 in loading media with a final specific radioactivity of 1 μCi/150 μL). Alternatively, the human and mouse albumin can be added after the overnight labeling step before the addition of LiCl.
The assay was typically run the next day after 18 h labeling. On the day of the assay, 5 μL of 300 mM LiCl was added to all wells and incubated at 37 degrees for 20 min 0.75 μL of 200× compounds were added and incubated with the cells for 60 min at 37 degrees. The media was then aspirated off and the assay terminated with the addition of 60 μL 10 mM formic acid. The cells were lysed for 60 min at room temperature. 15-30 μL of lysate was mixed with 70 μL/1 mg YSi SPA beads (Amersham) in clear bottom Isoplates. The plates were shaken for 2 h at room temperature. Beads were allowed to settle and the plates were counted in the Wallac Microbeta.

Human GPR40 [2] = target: T1, Human GPR40; assay: FLIPR assay (agonist-induced calcium mobilization); type: cell-based; design: expressed in transfected cells; details: GPR40/CHO NFAT BLA cells
Description: as §1
FLIPR (Fluorimetric Imaging Plate Reader, Molecular Devices) assays were performed to measure agonist-induced calcium mobilization of the stable clones. For the FLIPR assay, one day before assay, GPR40/CHO NFAT BLA cells were seeded into black-wall-clear-bottom 384-well plates (Costar) at 1.4×10e4 cells/20 μL medium/well. The cells were incubated with 20 μl/well of the assay buffer (HBSS, 0.1% BSA, 20 mM HEPES, 2.5 mM probenecid, pH 7.4) containing 8 μM fluo-4, AM, 0.08% pluronic acid at room temperature for 100 minutes. Fluorescence output was measured using FLIPR. Compounds were dissolved in DMSO and diluted to desired concentrations with assay buffer. 13.3 μL/well of compound solution was added.

T1 sequence (O14842 whole entry): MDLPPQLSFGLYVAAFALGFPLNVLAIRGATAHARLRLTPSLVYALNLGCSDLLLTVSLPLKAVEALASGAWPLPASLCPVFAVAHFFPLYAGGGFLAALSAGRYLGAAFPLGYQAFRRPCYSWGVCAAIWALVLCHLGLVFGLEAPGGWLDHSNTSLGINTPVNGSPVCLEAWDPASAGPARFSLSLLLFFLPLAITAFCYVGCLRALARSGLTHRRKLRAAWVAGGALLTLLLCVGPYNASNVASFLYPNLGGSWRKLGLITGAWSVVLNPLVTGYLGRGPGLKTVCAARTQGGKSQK

What does the source list for `Cc1cc(OCCC(C)(C)O)ccc1-c1cc(COc2cc3c(cn2)[C@H]2[C@@H](C3)[C@@H]2C(=O)O)c(F)cc1C(F)(F)F` [Example 1]?
EC50 (Human GPR40 [1]): 9.89 nM; EC50 (Human GPR40 [2]): 16.7 nM

`Cc1cc(OCCCS(C)(=O)=O)ccc1-c1cc(COc2cc3c(cn2)[C@H]2[C@@H](C3)[C@@H]2C(=O)O)c(F)cc1C(F)(F)F` [Example 2, (5aR,6S,6aS)-3-((4-fluoro-2′-methyl-4′-(3-(methyl-sulfonyl)-propoxy)-6-(tri-fluoromethyl)-[1,1′-biphenyl]-3-yl)methoxy)-5,5a,6,6a-tetrahydrocyclo-propa[4,5]cyclopenta [1,2-c]pyridine-6-carboxylic acid] was tested. Which EC50 (Human GPR40 [1]) did it give?
The EC50 was 2.98 nM.

And the EC50 (Human GPR40 [2])?
Its EC50 is 5.75 nM.

For `Cc1nc(OCCC(C)(C)O)ccc1-c1cc(COc2cc3c(cn2)[C@H]2[C@@H](C3)[C@@H]2C(=O)O)c(F)cc1C(F)(F)F` [Example 3, (5aR,6S,6aS)-3-((2-fluoro-5-(6-(3-hydroxy-3-methyl-butoxy)-2-methyl-pyridin-3-yl)-4-(trifluoromethyl)-benzyl)-oxy)-5,5a, 6,6a-tetrahydro-cyclopropa[4,5] cyclopenta[1,2-c] pyridine-6-carboxylic acid], which EC50 (Human GPR40 [1]) is on record?
Its EC50 is 4.95 nM.

And the EC50 (Human GPR40 [2])?
Its EC50 is 1.52 nM.

What does the source list for `Cc1cc(OCCC(C)(C)O)ccc1-c1cc(COc2cc3c(cn2)[C@H]2[C@@H](C3)[C@@H]2C(=O)O)c(F)cc1C(F)F` [Example 4, (5aR,6S,6aS)-3-((6-(difluoro-methyl)-4-fluoro-4′-(3-hydroxy-3-methyl-butoxy)-2′-methyl-[1,1′-biphenyl]-3-yl)methoxy)-5,5a,6,6a-tetrahydrocyclo-propa[4,5] cyclopenta[1,2-c] pyridine-6-carboxylic acid]?
EC50 (Human GPR40 [1]): 5.25 nM; EC50 (Human GPR40 [2]): 14.4 nM

For `CC(C)(O)CCOc1ccc(-c2cc(COc3cc4c(cn3)[C@H]3[C@@H](C4)[C@@H]3C(=O)O)c(F)cc2C(F)(F)F)cc1` [Example 5, (5aR,6S,6aS)-3-((4-fluoro-4′-(3-hydroxy-3-methylbutoxy)-6-(trifluoromethyl)-[1,1′-biphenyl]-3-yl)methoxy)-5,5a,6,6a-tetrahydrocyclopropa[4,5]cyclopenta[1,2-c]pyridine-6-carboxylic acid], which EC50 (Human GPR40 [1]) is on record?
The EC50 was 6.24 nM.

What about the EC50 (Human GPR40 [2]) of the same compound?
The EC50 was 24.9 nM.

Which EC50 (Human GPR40 [1]) does the source give for `CC(C)(O)CCOc1ccc(-c2cc(COc3cc4c(cn3)[C@H]3[C@@H](C4)[C@@H]3C(=O)O)c(F)cc2C(F)(F)F)cc1F` [Example 6, (5aR,6S,6aS)-3-((3′,4-difluoro-4′-(3-hydroxy-3-methyl-butoxy)-6-(trifluoro-methyl)-[1,1′-biphenyl]-3-yl)methoxy)-5,5a,6,6a-tetrahydrocyclopropa [4,5]cyclopenta[1,2-c] pyridine-6-carboxylic acid] here?
Its EC50 is 14.7 nM.

And the EC50 (Human GPR40 [2])?
The EC50 was 10.9 nM.

With `CC(C)(O)CCOc1ccc(-c2cc(COc3cc4c(cn3)[C@H]3[C@@H](C4)[C@@H]3C(=O)O)c(F)cc2C(F)(F)F)c(F)c1` [Example 7, (5aR,6S,6aS)-3-((2′,4-difluoro-4′-(3-hydroxy-3-methylbutoxy)-6-(trifluoro-methyl)-[1,1′-biphenyl]-3-yl)methoxy)-5,5a,6,6a-tetrahydrocyclopropa [4,5]cyclopenta[1,2-c] pyridine-6-carboxylic acid] as the compound, how does the EC50 (Human GPR40 [1]) read?
The EC50 was 11.4 nM.

And the EC50 (Human GPR40 [2])?
Its EC50 is 11.2 nM.

With `CS(=O)(=O)CCCOc1ccc(-c2cc(COc3cc4c(cn3)[C@H]3[C@@H](C4)[C@@H]3C(=O)O)c(F)cc2C(F)(F)F)c(F)c1` [Example 8, (5aR,6S,6aS)-3-((2′,4-difluoro-4′-(3-(methyl-sulfonyl)-propoxy)-6-(trifluoromethyl)-[1,1′-biphenyl]-3-yl)methoxy)-5,5a,6,6a-tetrahydro-cyclopropa[4,5]cyclo-penta[1,2-c]pyridine-6-carboxylic acid] as the compound, how does the EC50 (Human GPR40 [1]) read?
The EC50 was 6.54 nM.

And the EC50 (Human GPR40 [2])?
The EC50 was 9.2 nM.

For `O=C(O)[C@H]1[C@@H]2Cc3cc(OCc4cc(-c5c(F)cc(OCCC6(O)COC6)cc5F)c(C(F)(F)F)cc4F)ncc3[C@@H]21` [Example 9, (5aR,6S,6aS)-3-((2′,4,6′-trifluoro-4′-(2-(3-hydroxy-oxetan-3-yl)ethoxy)-6-(trifluoromethyl)-[1,1′-biphenyl]-3-yl)methoxy)-5,5a,6,6a-tetrahydrocyclopropa [4,5]cyclopenta[1,2-c]pyridine-6-carboxylic acid], which EC50 (Human GPR40 [1]) is on record?
Its EC50 is 11.1 nM.

And the EC50 (Human GPR40 [2])?
The EC50 was 6.89 nM.

`CC(C)(O)CCOc1cc(F)c(-c2cc(COc3cc4c(cn3)[C@H]3[C@@H](C4)[C@@H]3C(=O)O)c(F)cc2C(F)(F)F)c(F)c1` [Example 10, (5aR,6S,6aS)-3-((2′,4,6′-trifluoro-4′-(3-hydroxy-3-methylbutoxy)-6-(trifluoromethyl)-[1,1′-biphenyl]-3-yl)methoxy)-5,5a,6,6a-tetrahydrocyclo-propa[4,5]cyclopenta [1,2-c]pyridine-6-carboxylic acid] was tested. Which EC50 (Human GPR40 [1]) did it give?
Its EC50 is 27.2 nM.

What about the EC50 (Human GPR40 [2]) of the same compound?
The EC50 was 6.4 nM.

What does the source list for `CC(C)(O)CCOc1ccc(-c2cc(COc3cc4c(cn3)[C@H]3[C@@H](C4)[C@@H]3C(=O)O)c(F)cc2C(F)F)cc1F` [Example 11, (5aR,6S,6aS)-3-((6-(di-fluoro-methyl)-3',4-di-fluoro-4'-(3-hydroxy-3-methyl-butoxy)-[1,1'-biphenyl]-3-yl)methoxy)-5,5a,6,6a-tetrahydro-cyclopropa[4,5]cyclo-penta[1,2-c]pyridine-6-carboxylic acid]?
EC50 (Human GPR40 [1]): 17.6 nM; EC50 (Human GPR40 [2]): 16.7 nM

What does the source list for `CC(O)(CCOc1ccc(-c2cc(COc3cc4c(cn3)[C@H]3[C@@H](C4)[C@@H]3C(=O)O)c(F)cc2C(F)(F)F)cc1)C(F)F` (stereo partly drawn) [Example 12, (5aR,6S,6aS)-3-((4′-(4,4-difluoro-3-hydroxy-3-methylbutoxy)-4-fluoro-6-(trifluoromethyl)-[1,1′-biphenyl]-3-yl)methoxy)-5,5a,6,6a-tetrahydrocyclopropa[4,5]cyclopenta[1,2-c]pyridine-6-carboxylic acid]?
EC50 (Human GPR40 [1]): 20.3 nM; EC50 (Human GPR40 [2]): 12.5 nM

How did the EC50 (Human GPR40 [1]) turn out when `CC(C)(O)CCOc1ccc(-c2cc(COc3cc4c(cn3)[C@H]3[C@@H](C4)[C@@H]3C(=O)O)c(F)cc2C(F)(F)F)c(C(F)F)c1` [Example 13, (5aR,6S,6aS)-3-((2'-(difluoromethyl)-4-fluoro-4'-(3-hydroxy-3-methyl-butoxy)-6-(trifluoromethyl)-[1,1'-biphenyl]-3-yl)-methoxy)-5,5a,6,6a-tetra-hydrocyclo-propa[4,5]cyclopenta [1,2-c]pyridine-6-carboxylic acid] was run?
Its EC50 is 5.94 nM.

And the EC50 (Human GPR40 [2])?
Its EC50 is 9.66 nM.

How did the EC50 (Human GPR40 [1]) turn out when `Cc1cc(OCCC2(O)COC2)ccc1-c1cc(COc2cc3c(cn2)[C@H]2[C@@H](C3)[C@@H]2C(=O)O)c(F)cc1C(F)(F)F` [Example 14, (5aR,6S,6aS)-3-((4-fluoro-4′-(2-(3-hydroxyoxetan-3-yl)ethoxy)-2′-methyl-6-(trifluoromethyl)-[1,1′-biphenyl]-3-yl)methoxy)-5,5a,6,6a-tetrahydrocyclopropa[4,5]cyclopenta[1,2-c]pyridine-6-carboxylic acid] was run?
The EC50 was 5.54 nM.

What about the EC50 (Human GPR40 [2]) of the same compound?
Its EC50 is 10.4 nM.

For `CC(C)(O)CCOc1ncc(-c2cc(COc3cc4c(cn3)[C@H]3[C@@H](C4)[C@@H]3C(=O)O)c(F)cc2C(F)(F)F)cc1F` [Example 15, (5aR,6S,6aS)-3-((2-fluoro-5-(5-fluoro-6-(3-hydroxy-3-methylbutoxy)pyridin-3-yl)-4-(trifluoromethyl)benzyl)oxy)-5,5a,6,6a-tetrahydrocyclopropa[4,5]cyclopenta[1,2-c]pyridine-6-carboxylic acid], which EC50 (Human GPR40 [1]) is on record?
The EC50 was 7.97 nM.

What about the EC50 (Human GPR40 [2]) of the same compound?
Its EC50 is 4.88 nM.

For `Cc1nc(OCCC(C)(O)C(F)F)ccc1-c1cc(COc2cc3c(cn2)[C@H]2[C@@H](C3)[C@@H]2C(=O)O)c(F)cc1C(F)(F)F` (stereo partly drawn) [Example 16, (5aR,6S,6aS)-3-((5-(6-(4,4-difluoro-3-hydroxy-3-methyl-butoxy)-2-methyl-pyridin-3-yl)-2-fluoro-4-(trifluoro-methyl)-benzyl)-oxy)-5,5a,6,6a-tetrahydro-cyclo-propa[4,5]cyclopenta [1,2-c]pyridine-6-carboxylic acid], which EC50 (Human GPR40 [1]) is on record?
The EC50 was 10.4 nM.

For `Cc1cc(OCCC(O)C(C)(C)O)cc(C)c1-c1cc(COc2cc3c(cn2)[C@H]2[C@@H](C3)[C@@H]2C(=O)O)c(F)cc1F` (stereo partly drawn) [Example 18, (5aR,6S,6aS)-3-((4′-((3,4-dihydroxy-4-methylpentyl)oxy)-4,6-difluoro-2′,6′-dimethyl-[1,1′-biphenyl]-3-yl)methoxy)-5,5a,6,6a-tetrahydrocycloprop[4,5]cyclopenta[1,2-c]pyridine-6-carboxylic acid], which EC50 (Human GPR40 [1]) is on record?
The EC50 was 19.2 nM.
